In ChEMBL document CHEMBL1133926, “Optimization of a screening lead for factor VIIa/TF” (Bioorg Med Chem Lett, 2001):
Active and inactive are the calls of the source. The calls are words filed in the database; no cut-off is given here.

Experiments:
Homo sapiens [1] = species on record: Homo sapiens; assay: (§1) In vitro anticoagulant activity in human plasma to double the prothrombin time (2x PT); type: functional
Plasminogen [2] = biological target: T1, Plasminogen (Homo sapiens, UniProt P00747); assay: Relative affinity for Plasmin compared to compound 1
Prothrombin [3] = biological target: T2, Prothrombin (Homo sapiens, UniProt P00734); assay: Binding affinity towards Thrombin with respect to compound 1
[4] = biological target: T3, Urokinase-type plasminogen activator (Homo sapiens, UniProt P00749); assay: Relative binding affinity for urokinase-type plasminogen activator
Serine protease 1 [5] = biological target: T4, Serine protease 1 (Homo sapiens, UniProt P07477); assay: Relative binding affinity towards Trypsin
Coagulation factor X [6] = biological target: T5, Coagulation factor X (Homo sapiens, UniProt P00742); assay: Binding affinity towards coagulation factor X with respect to compound 1
Prothrombin [7] = biological target: T2, Prothrombin; assay: Binding affinity for Coagulation factor II relative to compound 1
Coagulation factor X [8] = biological target: T5, Coagulation factor X; assay: Binding affinity for Coagulation factor X with respect to compound 1
[9] = biological target: Coagulation factor VII/tissue factor (Homo sapiens, UniProt P08709); assay: Binding affinity for factor VIIa/TF; type: protein-complex assay
[10] = as §1; type: functional
Prothrombin [11] = biological target: T2, Prothrombin; assay: Binding affinity towards Coagulation factor II
Coagulation factor X [12] = biological target: T5, Coagulation factor X; assay: Binding affinity towards Coagulation factor X
Plasminogen [13] = biological target: T1, Plasminogen; assay: Binding affinity towards Plasmin
[14] = biological target: T3, Urokinase-type plasminogen activator; assay: Binding affinity towards urokinase-type plasminogen activator (microPa)
Serine protease 1 [15] = biological target: T4, Serine protease 1; assay: Binding affinity towards Trypsin
Coagulation factor VII = biological target: T6, Coagulation factor VII (Homo sapiens, UniProt P08709); assay: Binding affinity towards factor VIIa/TF was determined
T6 sequence (P08709 whole entry): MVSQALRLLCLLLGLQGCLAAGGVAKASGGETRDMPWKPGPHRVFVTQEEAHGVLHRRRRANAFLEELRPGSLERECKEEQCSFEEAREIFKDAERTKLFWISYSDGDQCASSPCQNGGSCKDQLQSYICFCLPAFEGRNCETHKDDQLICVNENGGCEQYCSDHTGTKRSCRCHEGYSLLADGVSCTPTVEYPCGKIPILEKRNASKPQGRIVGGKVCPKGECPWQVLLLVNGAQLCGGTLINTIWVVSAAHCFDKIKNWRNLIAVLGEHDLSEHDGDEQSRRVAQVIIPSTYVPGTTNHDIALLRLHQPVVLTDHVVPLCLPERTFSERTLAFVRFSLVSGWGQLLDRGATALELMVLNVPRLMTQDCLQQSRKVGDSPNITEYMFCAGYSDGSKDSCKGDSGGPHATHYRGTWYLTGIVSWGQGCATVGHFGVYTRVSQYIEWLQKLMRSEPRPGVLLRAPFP

Homo sapiens [16] = species on record: Homo sapiens; assay: In vitro anticoagulant activity in human plasma to double the prothrombin time (2xP T); Not active; type: functional, cell-free

Coagulation factor VII/tissue factor, sequence (P13726 33-295 partner limits assumed, one chain of several): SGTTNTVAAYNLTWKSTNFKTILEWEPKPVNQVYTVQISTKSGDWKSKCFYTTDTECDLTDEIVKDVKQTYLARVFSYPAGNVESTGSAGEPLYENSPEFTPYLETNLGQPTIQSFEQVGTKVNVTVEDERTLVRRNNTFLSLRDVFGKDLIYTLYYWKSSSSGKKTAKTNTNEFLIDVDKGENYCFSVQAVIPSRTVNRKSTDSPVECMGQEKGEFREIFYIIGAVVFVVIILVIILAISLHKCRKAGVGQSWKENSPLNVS
T5 sequence (P00742 41-179 limits assumed): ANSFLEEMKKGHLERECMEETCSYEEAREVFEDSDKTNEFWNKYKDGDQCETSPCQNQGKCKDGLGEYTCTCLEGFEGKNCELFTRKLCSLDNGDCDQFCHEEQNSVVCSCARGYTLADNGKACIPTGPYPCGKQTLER
T5 sequence (P00742 235-488 limits assumed): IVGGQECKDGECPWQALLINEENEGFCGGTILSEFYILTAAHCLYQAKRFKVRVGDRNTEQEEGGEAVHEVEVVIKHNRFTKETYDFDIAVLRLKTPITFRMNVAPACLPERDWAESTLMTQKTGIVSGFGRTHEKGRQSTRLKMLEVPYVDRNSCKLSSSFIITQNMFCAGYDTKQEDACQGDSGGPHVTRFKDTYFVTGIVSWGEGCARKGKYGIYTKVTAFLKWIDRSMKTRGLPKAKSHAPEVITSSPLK
T4 sequence (P07477 whole entry): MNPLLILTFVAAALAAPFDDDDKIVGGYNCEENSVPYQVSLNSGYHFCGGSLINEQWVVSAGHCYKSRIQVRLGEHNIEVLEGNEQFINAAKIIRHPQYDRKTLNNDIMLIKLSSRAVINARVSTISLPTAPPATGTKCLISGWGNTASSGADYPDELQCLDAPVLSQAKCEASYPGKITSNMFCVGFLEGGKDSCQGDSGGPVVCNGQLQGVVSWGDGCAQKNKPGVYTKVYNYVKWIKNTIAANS
T1 sequence (P00747 97-580 limits assumed): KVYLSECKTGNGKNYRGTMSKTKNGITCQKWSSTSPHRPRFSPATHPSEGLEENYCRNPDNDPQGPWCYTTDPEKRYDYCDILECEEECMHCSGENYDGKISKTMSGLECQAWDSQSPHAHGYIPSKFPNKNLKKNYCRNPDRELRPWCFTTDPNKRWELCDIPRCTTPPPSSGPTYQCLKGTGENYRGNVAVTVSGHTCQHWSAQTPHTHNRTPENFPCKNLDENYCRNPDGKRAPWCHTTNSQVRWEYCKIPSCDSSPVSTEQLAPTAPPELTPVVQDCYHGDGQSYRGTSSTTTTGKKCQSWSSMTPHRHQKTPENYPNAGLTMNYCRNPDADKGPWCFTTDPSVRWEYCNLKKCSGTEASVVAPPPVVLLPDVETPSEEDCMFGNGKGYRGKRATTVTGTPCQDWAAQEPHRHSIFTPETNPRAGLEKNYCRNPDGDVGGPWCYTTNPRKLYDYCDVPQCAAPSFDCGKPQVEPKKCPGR
T1 sequence (P00747 581-810 limits assumed): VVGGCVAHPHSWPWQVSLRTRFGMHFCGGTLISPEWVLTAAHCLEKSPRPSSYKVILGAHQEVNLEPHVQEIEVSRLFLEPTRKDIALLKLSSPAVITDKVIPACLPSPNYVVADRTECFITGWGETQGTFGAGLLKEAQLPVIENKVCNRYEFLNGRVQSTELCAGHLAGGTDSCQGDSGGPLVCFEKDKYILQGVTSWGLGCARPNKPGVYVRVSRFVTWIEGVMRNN

Structure (SMILES) | Selectivity (Plasminogen [2]) | Selectivity [4] | Selectivity (Serine protease 1 [5]) | Selectivity (Prothrombin [7]) | Selectivity (Coagulation factor X [8]) | Ki [9] [nM] | other results
N=C(N)c1ccc2[nH]c(-c3cc(CC(=O)O)cc(-c4cccc(C(=O)O)c4)c3O)cc2c1 | 5 | 6 | 1 | 375 | 0.5 | 320 | 
N=C(N)c1ccc2nc(-c3cc(Cl)cc(-c4cccc(N)c4)c3O)[nH]c2c1 |  |  |  |  |  | 78 | Ki (Prothrombin [11]): 4.2 nM; Ki (Coagulation factor X [12]): 0.5 nM; Ki (Plasminogen [13]): 3.2 µM; Ki [14]: 0.46 nM; Ki (Serine protease 1 [15]): 4.7 µM
N=C(N)c1cccc(-c2cc(CC(=O)O)cc(-c3cc4cc(C(=N)N)ccc4[nH]3)c2O)c1 | 3 | 0.6 | 2 | 140 | 4 | 430 | 
N=C(N)c1ccc2[nH]c(-c3cc(-c4nnn[nH]4)cc(-c4cccc([N+](=O)[O-])c4)c3O)cc2c1 |  |  |  |  |  |  | Ki (Coagulation factor VII): 50 nM
N=C(N)c1ccc2[nH]c(-c3cc(CC(=O)O)cc(-c4cccc(-c5nn[nH]n5)c4)c3O)cc2c1 | 2 | 2 | 3 | 100 | 0.5 |  | 
N=C(N)c1ccc2[nH]c(-c3cc(CC(=O)O)cc(-c4ccccc4)c3O)cc2c1 | 6 | 1 | 1 | 49 | 4 | 41 | 
N=C(N)c1ccc2[nH]c(-c3cc(CC(=O)O)cc(-c4cccc(-c5nnn[nH]5)c4)c3O)cc2c1 |  |  |  |  |  | 480 | 

Now from value to molecule, other results behind:

Selectivity (Plasminogen [2]) | Selectivity [4] | Selectivity (Serine protease 1 [5]) | Selectivity (Prothrombin [7]) | Selectivity (Coagulation factor X [8]) | Ki [9] [nM] | Structure (SMILES) | other results
20 | 15 | 40 |  |  |  | N=C(N)c1ccc2[nH]c(-c3cc(-c4nn[nH]n4)cc(-c4cccc([N+](=O)[O-])c4)c3O)cc2c1 | 2x PT (Homo sapiens [1]): 16 µM; Selectivity (Prothrombin [3]): 140; Selectivity (Coagulation factor X [6]): 0.5
6 | 6 | 37 | 59 | 2 | 27 | N=C(N)c1ccc2[nH]c(-c3cc(CCC(=O)O)cc(-c4cccc([N+](=O)[O-])c4)c3O)cc2c1 | 2x PT [10]: 2.2 µM
3 | 1 | 5 |  |  |  | N=C(N)c1ccc2[nH]c(-c3cc(CC(N)C(=O)O)cc(-c4cccc([N+](=O)[O-])c4)c3O)cc2c1 (stereo not given) | Ki (Coagulation factor VII): 50 nM; 2x PT (Homo sapiens [1]): 0.73 µM; Selectivity (Prothrombin [3]): 40; Selectivity (Coagulation factor X [6]): 0.5
90 | 64 | 160 | 960 | 20 | 3 | N=C(N)c1ccc2[nH]c(-c3cc(CC(=O)O)cc(-c4cccc([N+](=O)[O-])c4)c3O)cc2c1 | 2x PT [10]: 1.7 µM
75 | 44 | 70 | 420 | 42 | 5 | N=C(N)c1ccc2[nH]c(-c3cc(C(=O)O)cc(-c4cccc([N+](=O)[O-])c4)c3O)cc2c1 | 2x PT [10]: 4.1 µM
33 | 21 | 63 | 870 | 5 | 3 | N=C(N)c1ccc2[nH]c(-c3cc(CCOP(=O)(O)O)cc(-c4cccc([N+](=O)[O-])c4)c3O)cc2c1 | 2x PT (Homo sapiens [16]): inactive
27 | 6 | 83 | 550 | 26 | 12 | N=C(N)c1ccc2[nH]c(-c3cc(CC(=O)O)cc(-c4cccc(N)c4)c3O)cc2c1 | 
4 | 4 | inactive | 87 | 1 | 950 | N=C(N)c1ccc2[nH]c(-c3cc(CC(=O)O)cc(-c4cccc(OP(=O)(O)O)c4)c3O)cc2c1 | 
17 | 4 | 3 | 112 | 5 | 33 | N=C(N)c1ccc2[nH]c(-c3cc(CC(=O)O)cc(-c4cccc(Cl)c4)c3O)cc2c1 | 
